From US20240252694A1, “CONJUGATES COMPRISING COVALENT BINDERS FOR TARGETING INTRACELLULAR KRAS G12C PROTEINS” (RayzeBio, Inc., priority 2021, published 2024) come the findings set out here.

Read-outs that look alike come from different tables or passages of the source.

Assay [1] deals with human ERK1 dually phosphorylated at T202/Y204 and ERK2. Kind of assay: Phosphorylated ERK1/ERK2 ELISA. The class given is cell-based. Conditions: phosphorylated ERK in cell lysates after treatment with compounds, sandwich ELISA, cell line not stated. As to the method:
An ERK phosphorylation ELISA kit was used to characterize compounds for KRAS-based cell activity. The sandwich ELISA (RnD Systems. Catalog #DYC1018B) measures human ERK1 that is dually phosphorylated at T202/Y204 and ERK2. Cell lysates from cells before and after treatment with compounds were prepared using kit manufacturer protocols.
All reagents were prepared following the kit's protocol. The wells of a 96-well microtiter plate were coated with 100 μL of 8.0 μg/mL of capture antibody in PBS. The plate was sealed and left to incubate overnight at ambient temperature. After incubation, the wells were washed with 400 μL of Wash Buffer for a total of 3 washes. Wells were then blocked by adding 300 μL of Block Buffer to each well and incubated at ambient temperature for 1-2 hours. After removal of the Block Buffer by aspirating and washing, 100 μL of standards and samples were added to the plate in duplicates and incubated for 2 hours at ambient temperature. The aspiration and wash steps were repeated to remove unbound standard and samples and 100 μL of 400 ng/mL detection antibody was applied to each well. After 2 hours at ambient temperature, detection antibody was removed by washing and 100 μL of Streptavidin-HRP was added to each well. Incubation of Streptavidin-HRP was at ambient temperature for 20 minutes, after which Streptavidin-HRP was removed by washing, 100 μL of Substrate Solution was added to each well and incubated for 20 minutes before 50 μL of Stop Solution was added to each well.
The optical density of each well was immediately analyzed at 450 nm with a wavelength correction at 540 nm. The standards were plotted by averaging the optical density for each replicate and fitted with a four-parameter logistic curve fit. Concentrations of phosphorylated ERK in cell lysate samples were determined by extrapolation from the standard curve and then adjusted for any dilution factors.

In another assay the target is T1, KRAS (G12C) (Homo sapiens, UniProt P01116, G12C).
T1 construct: purchased BPS Bioscience 79859
T1 sequence (P01116 1-188 isoform P01116-2 G12C): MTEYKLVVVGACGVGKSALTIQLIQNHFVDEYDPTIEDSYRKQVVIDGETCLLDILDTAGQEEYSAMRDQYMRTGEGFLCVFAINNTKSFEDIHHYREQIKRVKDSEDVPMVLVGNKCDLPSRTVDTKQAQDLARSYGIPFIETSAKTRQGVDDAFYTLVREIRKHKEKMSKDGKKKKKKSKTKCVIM
Nature of the assay: KRAS G12C Nucleotide Exchange Assay (fixed GTP concentration). It is filed as biochemical. As to the method: A KRAS (G12C) Nucleotide Exchange Assay kit was used to evaluate compound antagonistic binding. The assay kit (BPS Bioscience. Catalog #79859) utilizes KRAS (G12C) labeled with BODIPY-GDP to determine if compounds can affect the nucleotide exchange (GDP to GTP) in KRAS signaling, Compounds were typically characterized using both protocols: fixed GTP concentrations and fixed inhibitor concentrations.
All reagents were prepared following manufacturer's protocol. 5 μL BODIPY-GDP and 10 μL of KRAS buffer were added to each well. A 3-fold serial dilution of compound in 5% DMSO was prepared. Typically, compounds were tested in the range of 0 μM to 50 μM, but the range could be modified depending on the characterization needs. 5 μL of diluted compound was added to the wells and the plate was centrifuged briefly to ensure all components were mixed before incubation at ambient temperature. After incubation for 2 hours, 10 μM GTP and 25 mM EDTA were mixed at a 1:1 ratio and 5 μL was added to the wells. The plate was then incubated for 1 hour at ambient temperature. After incubation, fluorescence was measured at […].
Data was analyzed by plotting fluorescence vs GTP concentration for control wells and compound wells.

Setting [2] is: KRAS (G12C) labeled with BODIPY-GDP, fixed GTP concentration, 2 hours compound incubation, fluorescence readout, read-out: IC50.

Take `C=CC(=O)N1CCN(c2nc(OC[C@@H]3CCCN3CCCCCCNC(=O)CN3CCN(CC(=O)O)CCN(CC(=O)O)CCN(CC(=O)O)CC3)nc3c2CCN(c2cccc4cccc(Cl)c24)C3)C[C@@H]1CC#N` [CHL-001, 2-[4,7-bis(carboxymethyl)-10-[2-[6-[(2S)-2-[[7-(8-chloro-1-naphthyl)-4-[(3S)-3-(cyanomethyl)-4-prop-2-enoyl-piperazin-1-yl]-6,8-dihydro-5H-pyrido[3,4-d]pyrimidin-2-yl]oxymethyl]pyrrolidin-1-yl]hexylamino]-2-oxo-ethyl]-1,4,7,10-tetrazacyclododec-1-yl]acetic acid]: the IC50 – broadly, the midpoint of a concentration-inhibition curve – in assay [1] was at least 10000 nM.

As to `C=CC(=O)N1CCN(c2nc(OC[C@@H]3CCCN3CCCNC(=O)c3cccc(I)c3)nc3c2CCN(c2cccc4cccc(Cl)c24)C3)C[C@@H]1CC#N` [Ex-5, N-[3-[(2S)-2-[[7-(8-chloro-1-naphthyl)-4-[(3S)-3-(cyanomethyl)-4-prop-2-enoyl-piperazin-1-yl]-6,8-dihydro-5H-pyrido[3,4-d]pyrimidin-2-yl]oxymethyl]pyrrolidin-1-yl]propyl]-3-iodo-benzamide], the IC50 (at KRAS (G12C) (setting [2]); in assay [1] (Homo sapiens)) was 1000 to 10000 nM in each case.

With `C=CC(=O)N1CCN(c2nc(OC[C@@H]3CCCN3CCC(C)(C)OC(=O)c3cccc(I)c3)nc3c2CCN(c2cccc4cccc(Cl)c24)C3)C[C@@H]1CC#N` [Ex-8, [3-[(2S)-2-[[7-(8-chloro-1-naphthyl)-4-[(3S)-3-(cyanomethyl)-4-prop-2-enoyl-piperazin-1-yl]-6,8-dihydro-5Hpyrido[3,4-d]pyrimidin-2-yl]oxymethyl]pyrrolidin-1-yl]-1,1-dimethyl-propyl]3-iodobenzoate], in assay [1] (Homo sapiens), the IC50 was in the range of 100 to 1000 nM.

Take `C=CC(=O)N1CCN(c2nc(OC[C@@H]3CCCN3CCCC(=O)O)nc3c2CCN(c2cccc4cccc(I)c24)C3)C[C@@H]1CC#N` [Ex-11, 4-[(2S)-2-[[4-[(3S)-3-(cyanomethyl)-4-prop-2-enoyl-piperazin-1-yl]-7-(8-iodo-1-naphthyl)-6,8-dihydro-5H-pyrido(3,4-d]pyrimidin-2-yl]oxymethyl]pyrrolidin-1-yl]butanoic acid]: in assay [1] (Homo sapiens), the IC50 was below 100 nM.

`C=CC(=O)N1CCN(c2nc(OC[C@@H]3CCCN3CCC(C)(C)C(=O)O)nc3c2CCN(c2cccc4cccc(I)c24)C3)C[C@@H]1CC#N` [Ex-12, 4-[(2S)-2-[[4-[(3S)-3-(cyanomethyl)-4-pop-2-enoyl-piperazin-1-yl]-7-(8-iodo-1-naphthyl)-6,8-dihydro-5H-pyrido[3,4-d]pyrimidin-2-yl]oxymethyl]pyrrolidin-1-yl]-2,2-dimethyl-butanoic acid]: the IC50 in assay [1] (Homo sapiens) was below 100 nM.

`C=CC(=O)N1CCN(c2nc(OC[C@@H]3CCCN3CC(O)CO)nc3c2CCN(c2cccc4cccc(I)c24)C3)C[C@@H]1CC#N` (stereo partly shown) [Ex-13]: in assay [1] (Homo sapiens), the IC50 is below 100 nM.

As to “N-[4-[(2S)-2-[[7-(8-chloro-1-naphthyl)-4-[(3S)-3-(cyanomethyl)-4-prop-2-enoyl-piperazin-1-yl]-6,8-dihydro-5H-pyrido[3,4-d]pyrimidin-2yl]oxymethyl]pyrrolidin-1-yl]butyL]1J-2-[(6S,9S, 12S, 21 S)-6,9,12,21-tetraethyl-3,16,19-trioxo-2,17,18-trioxa-5,8,11,14-tetraza-17,3-lutetatricyclo[9.6.3,25,14]docosan-8-yl]acetamide [Lu-CHL-005]”, the IC50 in assay [1] was in the range of 100 to 1000 nM.

Take `C=CC(=O)N1CCN(c2nc(OC[C@@H]3CCCN3CCCCNC(=O)CN3CCN4CCN5CCN(CC3)CC(=O)[O][Lu]([O]C(=O)C4)[O]C(=O)C5)nc3c2CCN(c2cccc4cccc(Cl)c24)C3)C[C@@H]1CC#N` [Lu-CHL-003, N-[4-[(2S)-2-[[7-(8-chloro-1-naphthyl)-4-[(3S)-3-(cyanomethyl)-4-prop-2-enoyl-piperazin-1-yl]-6,8-dihydro-5Hpyrido[3,4-d]pyrimidin-2-yl]oxymethyl]pyrrolidin-1-yl]butyl]-2-(3,16,19-trioxo-2,17,18-trioxa-5,8,11,14-tetrazaλ3-lutetatricyclo[9.6.3,25,14]docosan-8-yl)acetamide]: the IC50 against KRAS (G12C) is below 1000 nM; in assay [1] it was 1000 to 10000 nM.

As to `C=CC(=O)N1CCN(c2nc(OC[C@@H]3CCCN3CCCOCc3cccc(I)c3)nc3c2CCN(c2cccc4cccc(Cl)c24)C3)C[C@@H]1CC#N` [Ex-2, 2-[(2S)-4-[7-(8-chloro-1-naphthyl)-2-[[(2S)-1-[3-[(3-iodophenyl)methoxy]propyl]pyrrolidin-2-yl]methoxy]-6,8-dihydro-5H-pyrido[3,4-d]pyrimidin-4-yl]-1-prop-2-enoyl-piperazin-2-yl]acetonitrile], the results for the IC50 (at KRAS (G12C) (setting [2]); in assay [1] (Homo sapiens)) were 1000 to 10000 nM and 100 to 1000 nM, respectively.

Regarding `C=CC(=O)N1CCN(c2nc(OC[C@@H]3CCCN3CCCCCCNC(=O)CN3CCN4CCN5CCN(CC3)CC(=O)[O][Lu]([O]C(=O)C4)[O]C(=O)C5)nc3c2CCN(c2cccc4cccc(Cl)c24)C3)C[C@@H]1CC#N` [Lu-CHL-001, N-[6-[(2S)-2-[[7-(8-chloro-1-naphthyl)-4-[(3 S)-3-(cyanomethyl)-4-prop-2-enoyl-piperazin-1-yl]-6,8-dihydro-5H-pyrido[3,4-d]pyrimidin-2-yl]oxymethyl]pyrrolidin-1-yl]hexyl]-2-(3,16,19-trioxo-2,17,18-trioxa-5,8,11,14-tetraza-1λ3-lutetatricyclo[9,6,3,25,14]docosan-8-yl)acetamide], the IC50 (at KRAS (G12C); in assay [1]) was 1000 to 10000 nM throughout.

`C=CC(=O)N1CCN(c2nc(OC[C@@H]3CCCN3CCC(=O)O)nc3c2CCN(c2cccc4cccc(I)c24)C3)C[C@@H]1CC#N` [Ex-10]: in assay [1] (Homo sapiens), the IC50 is below 100 nM.

For the compound `C=CC(=O)N1CCN(c2nc(OC[C@@H]3CCCN3CCCC(=O)OCc3cccc(I)c3)nc3c2CCN(c2cccc4cccc(Cl)c24)C3)C[C@@H]1CC#N` [Ex-6, (3-iodophenyl)methyl 4-[(2S)-2-[[7-(8-chloro-1-naphthyl)-4-[(3S)-3-(cyanomethyl)-4-prop-2-enoyl-piperazin-1-yl]-6,8-dihydro-5H-pyrido[3,4-d]pyrimidin-2-yl]oxymethyl]pyrrolidin-1-yl]butanoate], in assay [1] (Homo sapiens), the IC50 is below 100 nM.

As for `C=CC(=O)N1CCN(c2nc(OC[C@@H]3CCCN3CC(CO)CO)nc3c2CCN(c2cccc4cccc(I)c24)C3)C[C@@H]1CC#N` [Ex-14, 2-[(2S)-4-[2-[I(2S)-1-[3-hydroxy-2-(hydroxymethyl)propylpyrrolidin-2-yl]methoxy]-7-(8-iodo-1-naphthyl)-6,8-dihydro-5H-pyrido(3,4-d]pyrimidin-4-yl]-1-prop-2-enoyl-piperazin-2-yl]acetonitrile], the IC50 in assay [1] (Homo sapiens) was below 100 nM.

As for `C=CC(=O)N1CCN(c2nc(OC[C@@H]3CCCN3CCCOC(=O)c3cccc(I)c3)nc3c2CCN(c2cccc4cccc(Cl)c24)C3)C[C@@H]1CC#N` [Ex-4], the IC50 in assay [1] (Homo sapiens) is below 100 nM.

`C=CC(=O)N1CCN(c2nc(OC[C@@H]3CCCN3CCOCc3cccc(I)c3)nc3c2CCN(c2cccc4cccc(Cl)c24)C3)C[C@@H]1CC#N` [Ex-1, 2-[(2S)-4-[7-(8-chloro-1-naphthyl)-2-[[(2S)-1-[2-[(3-iodophenyl)methoxy]ethyl]pyrrolidin-2-yl]methoxy]-6,8-dihydro-5H-pyrido[3,4-d]pyrimidin-4-yl]-1-prop-2-enoyl-piperazin-2-yl]acetonitrile]: the IC50 in assay [1] (Homo sapiens) lay in the range of 100 to 1000 nM.
